From patent US20150133492A1, “N-desmethyldauricine, A Novel Autophagic Enhancer for Treatment of Cancers and Neurodegenerative Conditions Thereof” (Macau University of Science and Technology, priority 2013, published 2015)

Key:
HeLa cancer cells [1] = assay: Transmission electron microscopy of autophagosomes/autolysosomes; assay type: cell-based, human; details: treated HeLa cancer cells
Source text: N-desmethyldauricine treated HeLa cells were fixed overnight with 2.5% glutaraldehyde followed by a buffer wash. Samples were post-fixed in 1% OsO4 and embedded in Araldite 502. Ultrathin sections were double stained with uranyl acetate and lead citrate, and analyzed by Philips CM 100 transmission electron microscope at a voltage of 80 kV.

[2] = test system: panel of human cancer cells; assay: MTT cytotoxicity assay, panel of human cancer cells; assay type: cell-based; details: 72 hours, read-out: mean IC50, cell cytotoxicity
Method: The test compound of N-desmethyldauricine was dissolved in DMSO at a final concentration of 100 mmol/L and stored at −20° C. Cytotoxicity was assessed using the 3-(4,5-dimethylthiazol-2-yl)-2,5-diphenyltetrazolium bromide assay as previously described^17. Cell number, 4000-8000 of HeLa (human cervical cancer), MCF-7 (human breast cancer), HepG2 (human liver cancer), Hep3B (human liver cancer), H1299 (human lung cancer), A549 (human lung cancer), PC3 (human prostate cancer), LLC-1 (mouse Lewis lung carcinoma) and LO2 (human normal liver) cells were seeded on 96-well plates per well, respectively. After overnight pre-incubation, the cells were exposed to different concentrations of N-desmethyldauricine (namely […], 0.039 μmol) for 3 days. Subsequently, 10 μL of MTT reagents was added to each well and incubated at 37° C. for 4 hours followed by the addition of 100 μL solubilization buffer (10% SDS in 0.01 mol/L HCl) and overnight incubation. Absorbance at 585 nm was determined from each well on the following day. The percentage of cell viability was calculated using the following formula: Cell viability (%)=Cells number treated/Cells number DMSO control×100. Data was obtained from three independent experiments.

Atg7+/+ cells = assay: Annexin V flow cytometry cell death, Atg7 wild-type MEFs; assay type: cell-based, mouse; details: 10 μM, 24 h
Method: Cell viability was measured using an annexin V staining kit (BD Biosciences, San Jose, Calif., USA). Briefly, Atg7 wild-type (Atg7^+/+ or Atg7-wt) and Atg7 deficient (Atg7^−/− or Atg7-ko) mouse embryonic fibroblasts (MEFs) were treated with the 10 μM N-desmethyldauricine for 24 h. Cells were then harvested and analysed by multiparametric flow cytometry using FITC-Annexin V and Propidium iodide staining (BD Biosciences, San Jose, Calif., USA) according to the manufacturer's instructions. Flow cytometry was then carried out using a FACSCalibur flow cytometer (BD Biosciences, San Jose, Calif., USA). Data acquisition and analysis was performed with CellQuest (BD Biosciences, San Jose, Calif., USA). Data were obtained from three independent experiments.

[3] = test system: panel of cancer and normal cells; assay: Quantification of autophagy GFP-LC3 puncta in cell panel; assay type: cell-based; details: fluorescent microscopy
Method: (§1) GFP-LC3 puncta formation was quantified as previously described^15. In brief, cells grown on coverslips in a 6-well plate were treated with or without 10 μM of N-desmethyldauricine for 4 hours, the cells were then fixed in 4% paraformaldehyde for 20 minutes at room temperature and then rinsed with PBS. Slides were mounted with FluorSave™ mounting media (Calbiochem, San Diego, Calif.) and examined by fluorescence microscopy. The number of GFP-positive cells with GFP-LC3 puncta formation was examined under the Nikon ECLIPSE 80i microscope. Representative images were captured with CCD digital camera Spot RT3™ (Diagnostic Instruments, Inc., Melville, N.Y.). To quantify for autophagy, the percentage of cells with punctate GFP-LC3 fluorescence was calculated by counting the number of the cells with punctate GFP-LC3 fluorescence in GFP-positive cells. A minimum of 150 cells from 3 randomly selected fields was scored.

HeLa cancer cells [4] = assay: Quantification of autophagy GFP-LC3 puncta in HeLa; assay type: cell-based, human; details: 10 μM, 4 hours, compared to DMSO control
Method: as §1

HeLa cells = assay: Calcium detection by flow cytometry (Fluo-3); assay type: cell-based, human; details: 5 μM/10 μM, 1 h, 2 h, 4 h
Method: Changes in intracellular free calcium were measured by a fluorescent dye, Fluo-3, as described previously^18. Briefly, HeLa cells were washed twice with MEM medium after N-desmethyldauricine (LP-4) treatment (5 μM/10 μM) for various times (1 h, 2 h, 4 h). Then cell suspensions were incubated with 5 μM Fluo-3 at 37° C. for 30 min. Then the cells were washed twice with HBSS. After re-suspended cell samples were subjected to FACS analysis, at least 10,000 events were analyzed.

PC 12 cells = assay: Crystal violet cell viability assay in PC-12; assay type: cell-based; details: 7.5 μM, 24 hours
Method: For cell viability assay measured by crystal violet staining, PC-12 cells were incubated in 35 mm disc followed by the addition of N-desmethyldauricine at 7.5 μM for 24 hours. The cells were then incubated with crystal violet for 10 minutes followed by a ddH2O wash. The stained cells image was captured by CCD digital camera Spot RT3™ under the Nikon ECLIPSE 80i microscope with 4× magnification. Cell viability was quantified by dissolving stained cells in 10% acetic acid (200 μL/well). The colorimetric reading of the solute mixture was then determined by spectrophotometer at OD 560 nm. The percentage of cell viability was calculated using the following formula: Cell viability (%)=Cells numbertreated/Cells numberDMSO control×100. Data was obtained from three independent experiments.

SERCA1A = molecular target: T1, SERCA1A (Oryctolagus cuniculus, UniProt P04191); assay: Measurement of SERCA Ca2+ ATPase activity; assay type: biochemical; details: rabbit skeletal muscle SR, dose-dependent
T1 construct: Purified Ca^2+ ATPase (SERCA1A) is prepared from female rabbit hind leg muscle; from tissue; host or cells: female rabbit hind leg skeletal muscle (sarcoplasmic reticulum)
Method: Purified Ca^2+ ATPase (SERCA1A) is prepared from female rabbit hind leg muscle^24. ATPase activity is determined using the enzyme-coupled method utilizing pyruvate kinase and lactate dehydrogenase as previously described in Michelangeli et al. (1990)^25. All SERCA inhibition data is fitted to the allosteric dose versus effect equation using Fig P (Biosoft):
Activity=minimum activity+(maximum activity−minimum activity)/(1+([I]IC50)P).
In molecular docking, 5000 poses were generated during the initial phase of the docking calculation, out of which the best 1000 poses were chosen for energy minimization by 1000 steps of conjugate gradient minimizations. The performance of molecular docking was evaluated by comparing the docked pose with the experimental structure for N-desmethyldauricine in the X-ray co-crystallized complex. TG in the X-ray co-crystallized complexes was re-docked into the binding sites and the RMSD for re-docked result of TG is 1.78 Å. […] To ascertain whether the SERCA pump is suppressed by N-desmethyldauricine, SERCA inhibitory effect is quantified using purified rabbit skeletal muscle sarcoplasmic reticulum (SR) membranes to measure the expression of the SERCA1A isoform by the SR membrances^26. Most of the existing SERCA inhibitors show similar inhibitory effect in SERCA isoform ^15,16. […]

T1 sequence (P04191 1-994 isoform P04191-2): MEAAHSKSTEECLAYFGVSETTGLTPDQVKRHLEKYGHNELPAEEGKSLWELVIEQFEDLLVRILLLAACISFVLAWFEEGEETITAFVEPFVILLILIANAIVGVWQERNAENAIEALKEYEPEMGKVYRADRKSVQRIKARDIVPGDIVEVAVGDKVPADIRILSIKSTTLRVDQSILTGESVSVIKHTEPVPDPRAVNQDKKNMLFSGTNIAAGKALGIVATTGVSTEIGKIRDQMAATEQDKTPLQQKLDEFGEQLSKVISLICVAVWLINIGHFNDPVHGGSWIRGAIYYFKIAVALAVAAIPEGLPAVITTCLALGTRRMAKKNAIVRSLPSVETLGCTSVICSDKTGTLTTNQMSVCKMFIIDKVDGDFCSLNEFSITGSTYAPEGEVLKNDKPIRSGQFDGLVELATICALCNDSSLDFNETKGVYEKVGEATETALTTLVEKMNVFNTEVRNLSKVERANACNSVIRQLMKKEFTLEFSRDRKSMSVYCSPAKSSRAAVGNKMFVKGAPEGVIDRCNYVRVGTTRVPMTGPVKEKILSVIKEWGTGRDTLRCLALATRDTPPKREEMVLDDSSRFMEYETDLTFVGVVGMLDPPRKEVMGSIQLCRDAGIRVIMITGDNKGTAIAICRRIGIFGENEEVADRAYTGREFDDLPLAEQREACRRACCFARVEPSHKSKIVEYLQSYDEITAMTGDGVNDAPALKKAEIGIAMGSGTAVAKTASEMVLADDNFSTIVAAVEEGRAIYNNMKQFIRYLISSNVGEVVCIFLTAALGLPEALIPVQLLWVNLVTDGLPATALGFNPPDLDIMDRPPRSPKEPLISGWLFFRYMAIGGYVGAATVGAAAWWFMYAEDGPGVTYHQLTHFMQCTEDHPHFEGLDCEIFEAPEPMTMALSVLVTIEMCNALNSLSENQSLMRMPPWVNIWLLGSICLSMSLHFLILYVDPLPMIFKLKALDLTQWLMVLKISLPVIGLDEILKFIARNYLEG

Which results are given for `COc1cc2c(cc1OC)[C@@H](Cc1ccc(Oc3cc(C[C@H]4NCCc5cc(OC)c(OC)cc54)ccc3O)cc1)N(C)CC2` [N-desmethyldauricine]?
autophagosomes/autolysosomes by electron microscopy (HeLa cancer cells [1]): found; IC50 [2]: 8.23 to 19.7 µM; cell death (Atg7+/+ cells): markedly induce cell death; GFP-LC3 puncta formation [3]: increased; GFP-LC3 puncta formation (HeLa cancer cells [4]): significantly induced; cytosolic calcium level (HeLa cells): increase; toxicity in PC 12 cells (PC 12 cells): no toxicity; Ca2+ ATPase activity of SERCA (SERCA1A): inhibited
